Consider two compounds from patent US20200129535A1, “DESMOCOLLIN 1 INHIBITORS FOR THE PREVENTION OR TREATMENT OF ATHEROSCLEROSIS” (priority 2017, published 2020).

Read-outs that look alike come from different tables or passages of the source.

The subject of this test is Primary human skin fibroblasts. Nature of the test: apoA-I-mediated cholesterol efflux study (promotion of HDL biogenesis) with compounds. Type of test: cell-based. The note with it: for EC50: Homo sapiens, Skin fibroblast, [3H]-cholesterol-labelled, cholesterol-loaded fibroblasts, 5 μg/ml apoA-I for 24 h, compound added during equilibration and apoA-I treatment. The method, then:
FIGS. 17(A) to 17(C) show rutin (A), acarbose (B) and docetaxel (C) can promote apoA-I-mediated cholesterol efflux. Primary human skin fibroblasts were labelled with 0.2 μCi/ml of [^3H]-cholesterol during growth, loaded with 30 μg/ml of unlabeled cholesterol for 24 h, equilibrated for 24 h, and treated with 5 μg/ml of apoA-I for 24 h to determine efflux of cellular cholesterol by apoA-I. The indicated concentrations of rutin, acarbose and docetaxel were added during the equilibration and apoA-I treatment period. Results are expressed as percentage of total (cell plus medium) [^3H]-sterol appearing in the medium. Values are the mean+SD of quadruplicate determinations. One-way analysis of variance with Dunnett's post-hoc correction was performed to calculate multiplicity-adjusted P values. *P<0.05; **P<0.001; ***P<0.0001 compared with the group treated with apoA-I alone.
To investigate the biological activity of the 51 compounds identified in Example 3 in modulating HDL biogenesis, we performed an apoA-I-mediated cholesterol efflux study as described previously (see Choi, H. Y. et al., J Biol Chem 278, 32569-32577 (2003)).

Regarding `C[C@H]1O[C@H](O[C@H]2[C@H](O)[C@@H](O)[C@@H](O[C@H]3[C@H](O)[C@@H](O)C(O)O[C@@H]3CO)O[C@@H]2CO)[C@H](O)[C@@H](O)[C@@H]1N[C@H]1C=C(CO)[C@@H](O)[C@H](O)[C@H]1O` (stereo partly shown) [No. 2, Acarbose], the EC50 (read-out: EC50 value, promotion of apoA-I-mediated HDL biogenesis) was found to be 6.59 µM.
Take `CC(=O)O[C@@]12CO[C@@H]1C[C@H](O)[C@@]1(C)C(=O)[C@H](O)C3=C(C)[C@@H](OC(=O)[C@H](O)[C@@H](NC(=O)OC(C)(C)C)c4ccccc4)C[C@@](O)([C@@H](OC(=O)c4ccccc4)[C@H]21)C3(C)C` [No. 17, Docetaxel]: under “FIG. 17, compared with the group treated with apoA-I alone”, the “effect on apoA-I-mediated cholesterol efflux” value is recorded as “promote”. Moreover, where the note is “read-out: half-maximal effective concentration (EC50), promotion of apoA-I-mediated HDL biogenesis”, the EC50 came out at 0.00072 µM. Further, the “potency rank in promoting HDL biogenesis among the 3 most active compounds” value (dose-response curves, FIG. 17) is given as “most potent”.
